Test [1] deals with Neonothopanus nambi hispidin hydroxylase and luciferase. The test is described as follows: Bioluminescence reaction of biosynthetic hispidin. It is filed as biochemical. The following applies: hispidin purified from fermenter medium by HPLC. On the procedure: The obtained E. coli strain was used for producing hispidin. At the first step the bacteria were incubated in five 50 ml plastic tubes in LB medium within 10 hours at 200 rpm fluctuation at 37° C. 250 ml of the obtained culture were added to 3.3 litres of fermentation medium into a fermenter Biostat B5 (Braun, Germany) so that initial culture optical density at 600 nm was about 0.35. Fermentation medium comprised 10 g/l of peptone, 5 g/l of caffeic acid, 5 g/l of yeast extract, 10 g/l of NaCl, 25 g/l of glucose, 15 g/l of (NH4)2SO4, 2 g/l of KH2PO4, 2 g/l of MgSO4·7 H2O, 14.7 mg/l of CaCl2), 0.1 mg/l of thiamine, 1.8 mg/l and 0.1% of the solution composed of: EDTA 8 mg/l, CoCl2·6 H2O 2.5 mg/l, MnCl2·4H2O 15 mg/l, CuCl2·2H2O 1.5 mg/l, H3BO3 3 mg/l, Na2MoO4·2H2O 2.5 mg/l, Zn(CH3COO)2·2H2O 13 mg/l, iron (III) citrate 100 mg/l, thiamine hydrochloride 4.5 mg/l. Fermentation was carried out at 37° C., with 3 l/min aeration and 200 rpm mixing. After 25 hours of cultivation arabinose was added to the culture up to final concentration of 0.1 mM. pH was automatically controlled by adding of NH4OH, […] pH to 7.0. […]

The test system of test [2] is Physcomitrella patens moss. The test is described as follows: Bioluminescence of transgenic moss gametophytes soaked in hispidin. Type of test: in vivo. The following applies: hispidin 900 μg/ml in BCD medium. From the text: Coding sequences of Neonothopanus nambi hispidin hydroxylase and luciferase were optimized for expression in Physcomitrella patens moss cells. Then, in silico there was created an expression cassette comprising promoter of rice aktI gene, human cytomegalovirus 5′-untranslated region coding hispidin hydroxylase sequence optimized for expression in plant cells (SEQ ID NO 103), terminating codon, Agrobacterium osc gene terminator sequence, rice ubiquitin promoter, coding sequence of Neonothopanus nambi luciferase (SEQ ID NO 112) optimized for expression in moss cells, Agrobacterium tumefaciens nos gene terminator.
The obtained sequence was synthesized in such a way, that all said fragments appeared to be operatively cross-linked to each other, and cloned by Gibson assembly technique [Gibson et al., Nat Methods, 2009, 6:343-5] into expression vector pLand #1 (Institut Jean-Pierre Bourgin, France), between DNA fragments coincident with locus of Physcomitrella patens moss genomic DNA between sequences of highly expressed moss genes Pp3c16_6440 V3.1 and Pp3c16_6460 V3.1. The vector pLand #1 also comprised a guide RNA (sgRNA) sequence for Cas9 nuclease, complementary to the region of the same DNA locus. […]
The obtained moss gametophytes were soaked in BCD medium comprising hispidin at concentration of 900 μg/ml, and analyzed by means of IVIS Spectrum In Vivo Imaging System (Perkin Elmer).

Structures are written as SMILES.

For `O=c1cc(O)cc(/C=C/c2ccc(O)c(O)c2)o1` [hispidin, (E)-6-(3,4-dihydroxystyryl)-4-hydroxy-2H-pyran-2-one], the “activity in bioluminescence reaction” value in test [1] is “active in bioluminescence reaction”. The “bioluminescence intensity exceeding the signal of control plants expressing luciferase only” value in test [2] was “minimum by two orders of magnitude”.

These data come from patent publication US20240117385A1, “ENZYMES OF LUCIFERIN BIOSYNTHESIS AND USE THEREOF” (LIGHT BIO, INC., priority 2018, published 2024).
